From patent US4719046A, “Crysene derivatives” (Burroughs Wellcome Co., priority 1984, dated 1988) come the findings set out here.

The subject of series [1] is CD2-F1 mice. Put plainly: LD20 in the P388/0 test mice. The format is in vivo, mouse (CD2-F1). Conditions: IP days 1, 5, 9, doses on a mg/kg basis. The procedure: (§1) CD2-F1 mice, of the same sex, weighing 20±3 g, are used for this test. Control and test animals are injected intraperitoneally with a suspension of ~10^6 viable P388/0 tumor cells on day 0. In each test, several dose levels which bracket the LD20 of the compound are evaluated; each dose level group contains six animals. The test compounds are prepared either in physiologic saline containing 0.05% Tween 80 or distilled water containing 5% dextrose and are administered intraperitoneally on days 1, 5, and 9 relative to tumor implant. Doses are on a mg/kg basis according to individual animals' body weights. The day of death for each animal is recorded, the median identified for each group and the ratios of median survival time for treated (T)/control (C) groups are calculated. The criterion for activity is T/C×100≥120%.
(§2) ^A Values in parentheses are the highest nontoxic dose where the
(§3) LD20 was not determined.

The subject of series [2] is Herpes simplex 1/vero. Put plainly: Herpes simplex 1/vero plaque inhibition screen. The format is cell-based. From the text: Antiviral testing against Herpes simplex 1/vero was done using plaque inhibition methods as outlined in P. Collins and D. J. Bauer, Proc. N.Y. Acad. Sci. 284, 49 (1977) and by plaque reduction methods as outlined in P. Collins and D. J. Bauer, J. Antimicrobial Chemotherapy 3, Supplement A, 73(1977). The column headings labeled Score, Toxicity, and Zone of Inhibition refer to the plaque inhibition screen while the IC50 heading to the plaque reduction screen.

Series [3] relates to Streptococcus pyogenes (CN10). Put plainly: Antibacterial test, Streptococcus pyogenes (agar dilution). The format is cell-based. The text has this:
(§4) Anitbacterial testing against […] (S3264) and Streptococcus pyogenes (CN10) was done with slight modifications using standard agar dilution assays as outlined in Manual of Clinical Microbiology Second Ed., E. H. Lennette. E. H. Spaulding and J. P. Traunt Eds., American Society for Microbiology, Washington, DC, 1974

The test system of series [4] is Mycoplasma smegmatis. Put plainly: Antibacterial test, Mycoplasma smegmatis (agar dilution). The format is cell-based.
From the text: as §4

Series [5] concerns lymphocytic leukemia L1210. Put plainly: Lymphocytic Leukemia L1210 Test. The note with it: median survival T/C; 120 mg/kg IP days 1, 5, 9; active if ≥125%. The format is in vivo, mouse (CD2-F1).
From the text: (§5) Methods for evaluating the antitumor activity of these compounds are essentially those used in the Tumor Panel by the Developmental Therapeutics Program, Division of Cancer Treatment, National Cancer Institute, A. Goldin, et al., Methods in Cancer Research, Vol. XVI, p. 165, Academic Press (1979). Some modifications, in dose level and schedule have been made to increase the testing efficiency.
as §1
The protocol for this test is identical to that for P388/0, except that the number of L1210 cells implanted on day 0 is ~10^5 /mouse. […]

The subject of series [6] is melanotic melanoma B16. Put plainly: Melanotic Melanoma B16 test. The format is in vivo, mouse (B6C3-F1). Conditions: median survival T/C; IP days 1, 5, 9; active if >125%; dose mg/kg: 1C 100, 6G 50, 3 70, 2 75, 18B 70.
From the text: as §5, §1
B6C3-F1 mice of the same sex, weighing 20±3 g, are used for this test. A suspension of B16 cells is prepared from a non-necrotic portion of solid tumor tissue obtained from a passage mouse. One gram of tumor is homogenized in 9 mL ice-cold Earle's salts solution and filtered through 1000 mesh screen to remove debris. 0.5 mL of the resulting brei is injected intraperitoneally into each animal. Dosing is carried out as in the P388/0 and L1210 tests. Days of death are recorded for a 60 day period and T/C ratio calculated as in the P388/0 and L1210 tests. The criterion for activity is T/C×100>125%.

Series [7] relates to Lewis lung carcinoma. Put plainly: Lewis Lung Carcinoma Test. The format is in vivo, mouse (BD-F1; tumor from C57B1/6). Conditions: median survival T/C; 105 mg/kg days 1, 5, 9; active if ≥140%.
From the text: as §5
CD2-F1 mice, of the same sex, weighing 20±3 g, are used for this test. Control and test animals are injected intraperitoneally with a suspension of ~10^6 viable P388/0 tumor cells on day 0. In each test, several dose levels which bracket the LD20 of the compound are evaluated; each dose level group contains six animals. […] The day of death for each animal is recorded, the median identified for each group and the ratios of median survival time for treated (T)/control (C) groups are calculated. […]
This tumor arose spontaneously in the lung of a C57B1/6 mouse and is maintained by subcutaneous passage in that strain. […] In each test, several dose levels which bracket the LD20 for the compound are evaluated. […] The day of death for each animal is recorded, the median identified for each group and the ratios of median survival time for treated (T)/control (C) groups are calculated. […]

The test system of series [8] is colon 38 carcinoma. Put plainly: Colon 38 Carcinoma Test. The format is in vivo, mouse (C57B1/6). Conditions: tumor weight T/C at day 20; 120 mg/kg IP days 1, 5, 9; active if ≤42%.
From the text: as §5
This chemically-induced tumor arose in a C57B1/6 mouse and is maintained as a solid tumor in that mouse strain. The subcutaneously growing solid tumor is aseptically excised from passage mice and placed in sterile saline. The tumor is trimmed free of visible necrotic and connective tissue, then divided into 2-3 mm cubes. A cube is implanted subcutaneously in the ventral thoracie region with a sterile trochar on day 0. In each test several dose levels which bracket the LD20 for the compound are evaluated. Ten animals are included in each dose level group and thirty animals in the untreated control group. The test compounds are prepared either in physiologic saline containing 0.05% Tween 80 or distilled water containing 5% dextrose and are administered intraperitoneally on days 1, 5 and 9 after tumor implant. […] At day 20, the animals are sacrificed and the longest (L) and shortest (W) dimensions of each tumor measured with vernier calipers. Tumor weight is calculated from the formula (L× (W)^2 /2). […]

In series [9] the test system is M5076 sarcoma. Put plainly: M5076 Sarcoma Test. The format is in vivo, mouse (B6C3-F1). The note with it: median survival T/C; 105 mg/kg IP days 1, 5, 9; active if ≥125%.
From the text: as §5, §1
This sarcoma arose as a solid tumor in the ovary of a C57B1/6 mouse and was subsequently converted to the ascitic form for intraperitoneal use. […]

Series [10] can be described thus: LD20 in the P388/0 test mice. The format is in vivo, mouse (CD2-F1). Conditions: mouse, in vivo, IP days 1, 5, 9, doses on a mg/kg basis, read-out: LD20 column, value in parentheses: highest nontoxic dose where the LD20 was not determined. The procedure: as §1, §2, §3
For series [11], the system named is lymphocytic leukemia P388/0. Put plainly: Lymphocytic Leukemia P388/0 Test. The format is in vivo, mouse (CD2-F1). Conditions: median survival T/C; IP days 1, 5, 9; active if ≥120%; optimal dose mg/kg: 1B 121, 1C 115, 2 100, 3 100, 6G 65, 18B 88, 19H 110, 6H 60, 7 110, 9 300, 10B 1013, 11C 150, 12G 90, 5F 225, 13D 303, 14 196, 15B 250, 16 1012, 4B 180.
From the text: as §5, §1

Where a name gives a salt, the structure may show the parent alone.

In turn, `C[C@@H](O)C(C)(NCc1cc2c3ccccc3ccc2c2ccccc12)[C@@H](C)O` (relative stereo) [Example 5F] registered an LD20 in series [1] of 225 mg/kg.
Regarding `CS(=O)(=O)O.C[C@H](O)[C@@](C)(CO)NCc1cc2c3ccccc3ccc2c2ccccc12` (relative stereo) [Example 6H, (+-)(2R*,3S*)-2-((6-Chrysenylmethyl)amino)-2-methyl-1,3-butanediol methanesulfonate], in [1], the LD20 amounted to 60 mg/kg.
Turning to `C[C@@H](O)[C@@](C)(CO)NCc1cc2c3ccccc3ccc2c2ccccc12.Cl` (relative stereo) [Example 7, (+-)(2R*,3R*)-2-((6-Chrysenylmethyl)amino)-2-methyl-1,3-butanediol hydrochloride], the LD20 in series [1] was 100 mg/kg.
Turning to `CC(CO)(CO)NCc1cc2c3ccccc3ccc2c2ccccc12.Cl` [Example 1B, 2-((6-Chrysenylmethyl)amino)-2-methyl-1,3-propanediol hydrochloride], the “Zone of Inhibition” value in series [2] stood at 43. Further, the MIC in [3] and in [4] was no more than 10 µg/mL each time. For the same molecule, the LD20 in series [1] is 140 mg/kg.
Regarding `CC(CO)(CO)NCc1cc2c3ccccc3ccc2c2ccccc12` [Example 1C, 2-((6-Chrysenylmethyl)amino)-2-methyl-1,3-propanediol methanesulfonate], in series [5], the “T/C × 100% Excluding 30 day Survivors” value is recorded as “+252%”. The “T/C × 100% Excluding 60 day Survivors” value is “+146%” in [6] and “+191%” in [7]. Moreover, the “T/C × 100%” value is reported as 36% in series [8] and “+168%” in series [9]. The molecule further showed an LD20 in series [1] of 105 mg/kg.
With `Cl.OCC(CO)(CO)NCc1cc2c3ccccc3ccc2c2ccccc12` [Example 2, 2-((6-chrysenylmethyl)amino)-2-hydroxymethyl-1,3-propanediol hydrochloride], the “T/C × 100% Excluding 60 day Survivors” value in series [6] was “+144%”. Further, the MIC in series [3] and in series [4] was 10 µg/mL each time. In addition, the LD20 in series [1] is 100 mg/kg.
Take `CCC(CO)(CO)NCc1cc2c3ccccc3ccc2c2ccccc12.Cl` [Example 3, 2-((6-Chrysenylmethyl)amino)-2-ethyl-1,3-propanediol hydrochloride]: the “T/C × 100% Excluding 60 day Survivors” value in series [6] is recorded as “+144%”. The results for the MIC in series [3] and in series [4] were 10 µg/mL and greater than 100 µg/mL, respectively. Besides, in series [1], the LD20 was 100 mg/kg.
The molecule `CC(CO)(CO)NCc1cc2c3ccccc3c(Cl)cc2c2ccccc12` [Example 4B, 2-(((12-Chloro-6-chrysenyl)methyl)amino)-2-methyl-1,3-propanediol methanesulfonate.1/3H2 O] had an LD20 in series [1] of 180 mg/kg.
`COCC(C)(CO)NCc1cc2c3ccccc3ccc2c2ccccc12.Cl` (centres unmarked) [Example 9D, 3-methoxy-2-((6-chrysenylmethyl)amino)-2-methyl-1-propanol hydrochloride] yielded an LD20 in [1] of 425 mg/kg.
On to `O[C@@H]1CCC[C@H](O)[C@H]1NCc1cc2c3ccccc3ccc2c2ccccc12` [Example 10B, (1α,2β,3α)-2-((6-Chrysenylmethyl)amino)-1,3-cyclohexanediol hydrochloride], for which, in series [10], the MTD was 675 mg/kg.
In turn, `CC(C)C(CO)(CO)NCc1cc2c3ccccc3ccc2c2ccccc12` [Example 11C, 2-((6-Chrysenylmethyl)amino)-2-isopropyl-1,3-propanediol hydrochloride 1/3 H2 O] displayed an LD20 in [1] of 150 mg/kg.
For `CC(CO)(CCO)NCc1cc2c3ccccc3ccc2c2ccccc12` (centres unmarked) [Example 12G, 2-((6-chrysenylmethyl)amino)-2-methyl-1,4-butanediol hyrochloride.1/3EtOH], the LD20 in [1] is 90 mg/kg.
As for `CS(=O)(=O)O.C[C@H](O)C(NCc1cc2c3ccccc3ccc2c2ccccc12)[C@@H](C)O` (stereo partly drawn) [Example 13D, meso-3-((6-Chrysenylmethyl)amino)-2,4-pentanediol methanesulfonate], the “T/C × 100% (Excluding 30 Day Survivors)” value in series [11] was “+200%”. For the same molecule, in series [1], the LD20 came to 675 mg/kg.
Molecule `OCC(CO)NCc1cc2c3ccccc3ccc2c2ccccc12` [Example 14, 2-((6-Chrysenylmethyl)amino)-1,3-propanediol methanesulfonate] returned an LD20 in series [1] of 160 mg/kg.
The molecule `CCc1cc2c3ccccc3c(CNC(C)(CO)CO)cc2c2ccccc12` [Example 15B, 2-(((12-Ethyl-6-chrysenyl)methyl)amino)-2-methyl-1,3-propanediol methanesulfonate] gave an LD20 in series [1] of 150 mg/kg.
Take `CC(=O)OCC(C)(COC(C)=O)NCc1cc2c3ccccc3ccc2c2ccccc12` [Example 16, 2-((6-Chrysenylmethyl)amino)-2-methyl-1,3-propanediol diacetate]: the minimum inhibitory concentration (MIC) in [3] and in series [4] was 10 µg/mL throughout. For the same molecule, the LD20 in series [1] was 675 mg/kg.
As to `CC(C)(CO)NCc1cc2c3ccccc3ccc2c2ccccc12.Cl` [Example 18B, 2-((6-Chrysenylmethyl)amino)-2-methylpropanol hydrochloride], in series [6], the “T/C × 100% Excluding 60 day Survivors” value is “+125%”. Moreover, the MIC in series [3] is no more than 3 µg/mL; in series [4], 10 µg/mL. This molecule also registered an LD20 in [1] of 80 mg/kg.
The molecule `CC(CO)(CO)NCc1ccc2ccc3c4ccccc4ccc3c2c1` [Example 19H, 2-((3-Chrysenylmethyl)amino)-2-methyl-1,3-propanediol methanesulfonate] came in with an LD20 in series [1] of 150 mg/kg.
